Measured values from paper PMC6216040, “Repurposing of an old drug: In vitro and in vivo efficacies of buparvaquone against Echinococcus multilocularis” (International Journal for Parasitology: Drugs and Drug …, 2018).
Where two headings read alike, the source gives them in different places.

Test system: E. multilocularis metacestodes
Experiment: PGI-assay: drug-induced damage on in vitro cultured metacestodes (Pathogen Box screening cascade and EC50)
Type: cell-based, Echinococcus multilocularis
Settings: for PGI release, % of the Tx-100 control, 5d / PGI release, % of the Tx-100 control, 12d / cytotoxicity at 10 µM: 10 µM, singlets; for cytotoxicity at 10 µM / PGI release, % of Tx-100 control at 10 µM: Echinococcus multilocularis
[1] = confirmatory screening at 10 µM in triplicates, 5 days of incubation, values as % of Tx-100 control
[2] = confirmatory screening at 10 µM in triplicates, 12 days of incubation, values as % of Tx-100 control
[3] = 120 h, 5 days of incubation, read-out: PGI release, % of the Tx-100 control, 5d
[4] = 288 h, 12 days of incubation, read-out: PGI release, % of the Tx-100 control, 12d

Structure (SMILES) | PGI release, % of the Tx-100 control, 5d (5 days of incubation) | PGI release, % of the Tx-100 control, 12d (12 days of incubation) | further results
O=C(NC1=NCCS1)c1sc2cc(F)ccc2c1Cl [MMV676584] | -1.36% | 1.53% | –
O=C(c1ccc(F)cc1)N(CCNc1ccccc1)c1ccccc1 [MMV676204] | 0.89% | 22.26% | PGI release, % of Tx-100 control, average, 5d [1]: -0.89%; PGI release, % of Tx-100 control, average, 12d [2]: -0.80%
CCCCc1ccc(NC(=O)Nc2ccc(O[C@H]3CCCC[C@@H]3N(C)c3ccccc3)c(F)c2)cc1 [MMV676063] | 2.73% | 76.51% | PGI release, % of Tx-100 control, average, 5d [1]: -1.39%; PGI release, % of Tx-100 control, average, 12d [2]: -1.33%
CCc1ccc(C(NCc2nc(N)nc(N(C)C)n2)C(C)C)cc1 (stereo not drawn) [MMV1019989] | 0.39% | -3.04% | –
Cc1c[nH]c(CCNC(=O)c2cc(-c3ccc(Cl)cc3)cs2)n1 [MMV676350] | -0.41% | 1.56% | –
Cc1nc2ccccn2c1C(=O)NCc1ccc(Cl)cc1 [MMV012074] | 0.39% | -0.51% | –
COc1ccc(C2=NN(C3CCCCCC3)C(=O)C2(C)C)cc1OCCCCOc1ccc(-c2nn[nH]n2)cc1 [MMV690028] | 2.30% | 6.47% | –
CCOC(=O)c1c(NC(=O)c2c(F)c(F)c(F)c(F)c2F)sc(C(N)=O)c1C [MMV153413] | 1.93% | 9.70% | –
Nc1cccnc1Nc1ccc(Cl)cc1 [MMV676524] | 0.13% | 0.29% | –
Nc1ccc2ncnc(Nc3ccc(OCc4cccc(F)c4)c(Cl)c3)c2c1 [MMV688273] | -1.47% | -4.16% | –
COc1ccccc1OCCCCn1c(C2CC2)nc2ccccc21 [MMV676474] | 1.01% | 0.22% | –
NCC(=O)N1CCn2c(nc(-c3ccccc3)c2Nc2ccc3c(c2)OCO3)C1 [MMV011691] | 1.25% | 2.05% | –
Cc1nnc(NCc2cccc(Cl)c2)c2ccccc12 [MMV676555] | -3.14% | 1.45% | –
CC(C(=O)N1CCCC1)N1CCN(S(=O)(=O)c2ccc(C(C)(C)C)cc2)CC1 (stereo not drawn) [MMV020291] | -0.20% | -0.67% | –
CN(C(=O)c1cc2c(-c3cncnc3)cccc2[nH]1)c1ccccc1 [MMV024443] | -1.32% | 3.28% | –
c1ccc(Oc2ccc(-c3cc(C4CCOCC4)[nH]n3)cc2)cc1 [MMV687762] | -1.81% | 0.46% | –
Clc1ccc(-n2cc(COc3ccnc4ccccc34)nn2)cc1 [MMV675994] | -6.67% | 46.84% | PGI release, % of Tx-100 control, average, 5d (1 µM, triplicates, 5 days of incubation): -4.24%; PGI release, % of Tx-100 control, average, 12d (1 µM, triplicates, 12 days of incubation): -12.79%; activity in the screen at 10 μM (confirmed in triplicates, >20% relative PGI release) (10 μM, 5 and 12 days): active; PGI release, % of Tx-100 control, average, 5d [1]: 26.02%; PGI release, % of Tx-100 control, average, 12d [2]: 73.87%
O=C(NCCN1CCCC1)c1cc(NCCN2CCOCC2)nc2ccc(Cl)cc12 [MMV634140] | 0.01% | -0.0759% | –
CNC(=O)c1nn(C)c2c1C(C)(C)Cc1cnc(Nc3ccc(N4CCN(C)CC4)cc3)nc1-2 [MMV676602] | -1.52% | 120.02% | PGI release, % of Tx-100 control, average, 5d [1]: 0.52%; PGI release, % of Tx-100 control, average, 12d [2]: 12.12%
CC1CS(=O)(=O)CCN1/N=C/c1ccc([N+](=O)[O-])o1 (stereo not drawn) [MMV001499, Nifurtimox, reference compound] | – | – | cytotoxicity at 10 µM [3]: 2.54%; cytotoxicity at 10 µM [4]: 3.97%
c1ccc2c(c1)CN(CC1CC1)CC1(CCN(Cc3c[nH]c4cnccc34)CC1)O2 [MMV023183] | -0.64% | -1.24% | –

Structure (SMILES) | PGI release, % of the Tx-100 control, 5d (5 days of incubation) | PGI release, % of the Tx-100 control, 12d (12 days of incubation) | further results
COc1cc(CN2CCC3(C=Cc4ccccc43)CC2)cc2c1OCO2 [MMV688941] | -0.50% | -0.49% | –
CC1(C)OB(O)c2ccc(C3=NOC(c4cc(Cl)c(F)c(Cl)c4)(C(F)(F)F)C3)cc21 (stereo not drawn) [MMV687775] | 11.08% | -0.22% | –
c1ccc(Oc2ccc(-c3cc(CN4CCOCC4)[nH]n3)cc2)cc1 [MMV676161] | -0.68% | -1.33% | –
CNC(=O)c1cc(S(=O)(=O)N2CCN(c3ccccn3)CC2)cs1 [MMV020136] | -0.32% | 0.25% | –
COc1ccc(C2CC(c3cccs3)=NN2C(=O)c2ccco2)cc1OC (stereo not drawn) [MMV019234] | 0.82% | 6.10% | –
CCN(CC)S(=O)(=O)c1ccc(C(=O)Nc2cc(C)nn2-c2nc(C)c(C)c(=O)[nH]2)cc1 [MMV595321] | -0.14% | -1.13% | –
c1csc(-c2cnc3sc(NCC4CCOCC4)nn23)c1 [MMV010764] | -0.61% | -4.41% | –
CC(C)(C)n1nc(Cc2ccc(F)c(Cl)c2)c2c(N)ncnc21 [MMV688852] | 6.41% | 7.25% | –
CC(C)/N=c1\cc2n(-c3ccc(Cl)cc3)c3ccccc3nc-2cc1Nc1ccc(Cl)cc1 [MMV687800, Clofazimine, reference compound] | – | – | cytotoxicity at 10 µM [3]: 26.6%; PGI release, % of Tx-100 control at 10 µM (120 h, confirmatory screening at 10 µM in triplicates, 5 days of incubation, values as % of Tx-100 control, read-out: PGI release, % of Tx-100 control, average, 5d): -0.59%; cytotoxicity at 10 µM [4]: 65.6%; PGI release, % of Tx-100 control at 10 µM (288 h, confirmatory screening at 10 µM in triplicates, 12 days of incubation, values as % of Tx-100 control, read-out: PGI release, % of Tx-100 control, average, 12d): 3.89%
O=C(Nc1ccc(N2CCNCC2)cc1)c1ccn2ncc(-c3cccc(Cl)c3)c2n1 [MMV022478] | 20.71% | 24.08% | PGI release, % of Tx-100 control, average, 5d [1]: 17.77%; PGI release, % of Tx-100 control, average, 12d [2]: 19.68%
COc1cccc(OCC(=O)c2ccc(Br)cc2)c1 [MMV676379] | -3.68% | -3.36% | –
CC(=O)NCC1CN(c2ccc(-c3ccc(CO)cc3)c(F)c2)C(=O)O1 (stereo not drawn) [MMV688508] | -0.03% | -1.49% | –
CC(C)NCC(=O)Nc1cccc(C(=O)Nc2cccc(C(F)(F)F)c2)c1 [MMV020165] | 0.28% | -0.10% | –
O=C(N[C@H](Cc1ccccc1)C(=O)Nc1ccccc1N1CCOCC1)c1cccs1 [MMV688845] | 0.55% | 0.28% | –
O=C(NCc1nnc2n1CCCCC2)c1ccc(-c2ccc(F)cc2)o1 [MMV688796] | -0.28% | -3.38% | –
CO/C=C(/C(=O)OC)c1ccccc1Oc1cc(Oc2ccccc2C#N)ncn1 [MMV021057, Azoxystrobin] | -0.65% | -0.77% | –
COc1ccc(-c2nnc3ccc(-c4cccc(C(C)C)c4)cn23)cc1OC [MMV688313] | -0.11% | -3.88% | –
CCCn1c(CNc2ccccc2O)nc2ccccc21 [MMV676445] | -1.26% | 2.30% | –
CC(C)(C)c1ccc(N[C@@H]2CCCC[C@H]2NC(=O)c2ccco2)cc1 [MMV675969] | 1.02% | -2.49% | –
Cc1cc(C)n2nc(C(=O)Nc3cc(C(F)(F)F)ccc3N3CCOCC3)nc2n1 [MMV019087] | -0.91% | -0.17% | –
CC(c1cc(Cl)cc(Cl)c1)N(C)c1ncc2c(N)nc(N)nc2n1 (stereo not drawn) [MMV689437] | 4.64% | 4.83% | –
